# Measurements as given in PubChem BioAssay AID2060613 (Molecular Pharmacology Branch, DTP, NCI, 2025).
# pIC50: −log10 of the molar value. Several values for one entry are separate records, joined by “and”; a condition that tells them apart may be missing. Equal entries are not always repeated.
# System: 233499-124-R-J3-PDC complex spheroid viability
# Assay: Anticancer human tumor 233499-124-R-J3-PDC patient-derived colon adenocarcinoma cell line growth inhibition [CLK]
# Settings: for viability, T/C: stronger effect = lower value
# Procedure, shortened: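 Patient-derived tumor cells grown as complex spheroids with HUVEC endothelial cells and mesenchymal stem cells, treated with drug combinations. Concentrations descend in half-log steps from near clinical Cmax, or from 10 microM if Cmax unknown.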
# [1] = curve of first compound, second compound 0.0316 µM
# [2] = curve of first compound, second compound 0.1 µM
# [3] = curve of first compound, second compound 0.316 µM
# [4] = curve of first compound, second compound 1 µM
# [5] = curve of first compound, second compound 3.16 µM
# [6] = curve of first compound, second compound 10 µM
# [7] = second compound 0.0316 µM, first compound 0.0316 µM
# [8] = second compound 0.0316 µM, first compound 0.1 µM
# [9] = second compound 0.0316 µM, first compound 0.316 µM
# [10] = second compound 0.0316 µM, first compound 1 µM
# [11] = second compound 0.0316 µM, first compound 3.16 µM
# [12] = second compound 0.0316 µM, first compound 10 µM
# [13] = second compound 0.1 µM, first compound 0.0316 µM
# [14] = second compound 0.1 µM, first compound 0.1 µM
# [15] = second compound 0.1 µM, first compound 0.316 µM
# [16] = second compound 0.1 µM, first compound 1 µM
# [17] = second compound 0.1 µM, first compound 3.16 µM
# [18] = second compound 0.1 µM, first compound 10 µM
# [19] = second compound 0.316 µM, first compound 0.0316 µM
# [20] = second compound 0.316 µM, first compound 0.1 µM
# [21] = second compound 0.316 µM, first compound 0.316 µM
# [22] = second compound 0.316 µM, first compound 1 µM
# [23] = second compound 0.316 µM, first compound 3.16 µM
# [24] = second compound 0.316 µM, first compound 10 µM
# [25] = second compound 1 µM, first compound 0.0316 µM
# [26] = second compound 1 µM, first compound 0.1 µM
# [27] = second compound 1 µM, first compound 0.316 µM
# [28] = second compound 1 µM, first compound 1 µM
# [29] = second compound 1 µM, first compound 3.16 µM
# [30] = second compound 1 µM, first compound 10 µM
# [31] = second compound 3.16 µM, first compound 0.0316 µM
# [32] = second compound 3.16 µM, first compound 0.1 µM
# [33] = second compound 3.16 µM, first compound 0.316 µM
# [34] = second compound 3.16 µM, first compound 1 µM
# [35] = second compound 3.16 µM, first compound 3.16 µM
# [36] = second compound 3.16 µM, first compound 10 µM
# [37] = second compound 10 µM, first compound 0.0316 µM
# [38] = second compound 10 µM, first compound 0.1 µM
# [39] = second compound 10 µM, first compound 0.316 µM
# [40] = second compound 10 µM, first compound 1 µM
# [41] = second compound 10 µM, first compound 3.16 µM
# [42] = second compound 10 µM, first compound 10 µM
# 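Further: spheroids exposed to the drug combinations for seven days.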
# 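Wherever viability, T/C is given: percent viability relative to DMSO vehicle control wells taken as 100%.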
structure (smiles),measurement,setting,value
CC(CO)NC(=O)c1cc(-c2ccc(Cl)cc2)nn(-c2cnn(C)c2)c1=O (stereo not drawn) + CNC(=O)c1ccc(Nc2nc(OC3CCCC3)c3c(-c4ccc5nc(C)oc5c4)c[nH]c3n2)c(OC)c1,pIC50,[1],< 5.00
same,pIC50,[2],< 5.00
same,pIC50,[3],< 5.00
same,pIC50,[4],< 5.00
same,pIC50,[5],< 5.00
same,pIC50,[6],< 5.00
same,"viability, T/C",[7],94.6%
same,"viability, T/C",[8],98.2%
same,"viability, T/C",[9],90.1%
same,"viability, T/C",[10],94.6%
same,"viability, T/C",[11],94%
same,"viability, T/C",[12],88.9%
same,"viability, T/C",[13],83.5%
same,"viability, T/C",[14],84.7%
same,"viability, T/C",[15],71.9%
same,"viability, T/C",[16],80.6%
same,"viability, T/C",[17],87.8%
same,"viability, T/C",[18],61.9%
same,"viability, T/C",[19],91.4%
same,"viability, T/C",[20],64.6%
same,"viability, T/C",[21],88.5%
same,"viability, T/C",[22],83.9%
same,"viability, T/C",[23],83.5%
same,"viability, T/C",[24],66.6%
same,"viability, T/C",[25],84.3%
same,"viability, T/C",[26],85%
same,"viability, T/C",[27],86.5%
same,"viability, T/C",[28],86.7%
same,"viability, T/C",[29],81.9%
same,"viability, T/C",[30],79.2%
same,"viability, T/C",[31],84.6%
same,"viability, T/C",[32],59.3%
same,"viability, T/C",[33],62.4%
same,"viability, T/C",[34],83.3%
same,"viability, T/C",[35],83.7%
same,"viability, T/C",[36],70.8%
same,"viability, T/C",[37],68.6%
same,"viability, T/C",[38],73.9%
same,"viability, T/C",[39],69.8%
same,"viability, T/C",[40],72.2%
same,"viability, T/C",[41],69.7%
same,"viability, T/C",[42],64.2%
CC(CO)NC(=O)c1cc(-c2ccc(Cl)cc2)nn(-c2cnn(C)c2)c1=O (stereo not drawn) + CN1CCN(c2cc(C(=O)Nc3cc4cc(-c5cnn(C)c5)ccc4cn3)ccn2)CC1,pIC50,[1],< 5.00
same,pIC50,[2],< 5.00
same,pIC50,[3],< 5.00
same,pIC50,[4],> 7.50
same,pIC50,[5],> 7.50
same,pIC50,[6],> 7.50
same,"viability, T/C",[7],97.5%
same,"viability, T/C",[8],100%
same,"viability, T/C",[9],98.1%
same,"viability, T/C",[10],92%
same,"viability, T/C",[11],98.5%
same,"viability, T/C",[12],66.4%
same,"viability, T/C",[13],86.3%
same,"viability, T/C",[14],112%
same,"viability, T/C",[15],103%
same,"viability, T/C",[16],94.2%
same,"viability, T/C",[17],94.3%
same,"viability, T/C",[18],80%
same,"viability, T/C",[19],93.3%
same,"viability, T/C",[20],94.4%
same,"viability, T/C",[21],92.2%
same,"viability, T/C",[22],94.8%
same,"viability, T/C",[23],103%
same,"viability, T/C",[24],68.9%
same,"viability, T/C",[25],1.24%
same,"viability, T/C",[26],1.01%
same,"viability, T/C",[27],6.77%
same,"viability, T/C",[28],3.75%
same,"viability, T/C",[29],6.32%
same,"viability, T/C",[30],0.66%
same,"viability, T/C",[31],0.63%
same,"viability, T/C",[32],0.7%
same,"viability, T/C",[33],0.8%
same,"viability, T/C",[34],0.74%
same,"viability, T/C",[35],0.73%
same,"viability, T/C",[36],0.73%
same,"viability, T/C",[37],0.53%
same,"viability, T/C",[38],0.48%
same,"viability, T/C",[39],1.5%
same,"viability, T/C",[40],0.55%
same,"viability, T/C",[41],0.5%
same,"viability, T/C",[42],0.6%
NC(=O)C(=Cn1cnc(-c2cc(C(F)(F)F)cc(C(F)(F)F)c2)n1)c1cncnc1 + CNC(=O)c1ccc(Nc2nc(OC3CCCC3)c3c(-c4ccc5nc(C)oc5c4)c[nH]c3n2)c(OC)c1,pIC50,[1],6.21
same,pIC50,[2],6.58
same,pIC50,[3],6.71
same,pIC50,[4],6.88
same,pIC50,[5],6.80
same,pIC50,[6],6.79
same,"viability, T/C","second compound 0.0316 µM, first compound 0.00949 µM",85.5%
same,"viability, T/C","second compound 0.0316 µM, first compound 0.03 µM",85.5%
same,"viability, T/C","second compound 0.0316 µM, first compound 0.0949 µM",79.8%
same,"viability, T/C","second compound 0.0316 µM, first compound 0.3 µM",78.2%
same,"viability, T/C","second compound 0.0316 µM, first compound 0.949 µM",33.4%
same,"viability, T/C","second compound 0.0316 µM, first compound 3 µM",15.5%
same,"viability, T/C","second compound 0.1 µM, first compound 0.00949 µM",85.3%
same,"viability, T/C","second compound 0.1 µM, first compound 0.03 µM",80.8%
same,"viability, T/C","second compound 0.1 µM, first compound 0.0949 µM",72.8%
same,"viability, T/C","second compound 0.1 µM, first compound 0.3 µM",34.5%
same,"viability, T/C","second compound 0.1 µM, first compound 0.949 µM",44.1%
same,"viability, T/C","second compound 0.1 µM, first compound 3 µM",15.7%
same,"viability, T/C","second compound 0.316 µM, first compound 0.00949 µM",74.6%
same,"viability, T/C","second compound 0.316 µM, first compound 0.03 µM",90.3%
same,"viability, T/C","second compound 0.316 µM, first compound 0.0949 µM",81.5%
same,"viability, T/C","second compound 0.316 µM, first compound 0.3 µM",31.8%
same,"viability, T/C","second compound 0.316 µM, first compound 0.949 µM",35.3%
same,"viability, T/C","second compound 0.316 µM, first compound 3 µM",12%
same,"viability, T/C","second compound 1 µM, first compound 0.00949 µM",75.4%
same,"viability, T/C","second compound 1 µM, first compound 0.03 µM",75.1%
same,"viability, T/C","second compound 1 µM, first compound 0.0949 µM",51.2%
same,"viability, T/C","second compound 1 µM, first compound 0.3 µM",39.9%
same,"viability, T/C","second compound 1 µM, first compound 0.949 µM",11.4%
same,"viability, T/C","second compound 1 µM, first compound 3 µM",10.6%
same,"viability, T/C","second compound 3.16 µM, first compound 0.00949 µM",68.9%
same,"viability, T/C","second compound 3.16 µM, first compound 0.03 µM",65%
same,"viability, T/C","second compound 3.16 µM, first compound 0.0949 µM",71.1%
same,"viability, T/C","second compound 3.16 µM, first compound 0.3 µM",26.3%
same,"viability, T/C","second compound 3.16 µM, first compound 0.949 µM",9.48%
same,"viability, T/C","second compound 3.16 µM, first compound 3 µM",4.46%
same,"viability, T/C","second compound 10 µM, first compound 0.00949 µM",73.5%
same,"viability, T/C","second compound 10 µM, first compound 0.03 µM",69.8%
same,"viability, T/C","second compound 10 µM, first compound 0.0949 µM",67%
same,"viability, T/C","second compound 10 µM, first compound 0.3 µM",30.5%
same,"viability, T/C","second compound 10 µM, first compound 0.949 µM",6.86%
same,"viability, T/C","second compound 10 µM, first compound 3 µM",1.62%
O=C(c1cc(Cc2n[nH]c(=O)c3ccccc23)ccc1F)N1CCN(C(=O)C2CC2)CC1,"viability, T/C",compound 0.0316 µM,89.8% and 102%
same,"viability, T/C",compound 0.1 µM,91.5% and 89.6%
same,"viability, T/C",compound 0.316 µM,104%
same,"viability, T/C",compound 1 µM,105% and 92.8%
same,"viability, T/C",compound 3.16 µM,107%
same,"viability, T/C",compound 10 µM,86% and 115%
same,pIC50,curve of compound,< 5.00
